Assays:
chymotrypsin [1] = biological target: T1, chymotrypsin (Bos taurus, UniProt P00766); test: Inactivation of chymotrypsin by biotin-isocoumarins (incubation method); type: biochemical, bovine; settings: 0.1 M Hepes, 0.5 M NaCl, pH 7.5, 5-10% Me2SO, 25° C., two values given for some compounds; for kinact/KI: pH 7.5, inhibitor 20-400 μM, read-out: kobs/[I] Chymotrypsin
Description: (§1) Inactivation rates of serine proteases by substituted isocoumarins were measured by the incubation method. An aliquot of inhibitor (25 or 50 μl) in Me2 SO was added to a buffered enzyme solution (0.01-2.3 μM) to initiate the inactivation. Aliquots (50-100 μl) were withdrawn at various intervals and the residual enzymatic activity was measured. Me2 SO concentration in the reaction mixture was 8-12% (v/v). 0.1M Hepes, 0.5M NaCl, pH 7.5 buffer was utilized for the assays of chymotrypsin, cathepsin G (cat G), porcine pancreatic elastase (PPE), human leukocyte elastase (HLE) and rat granule serine proteases. 0.1M Hepes, 0.01M CaCl2, pH 7.5 buffer was utilized for the assays of trypsin and human recombinant (HR) granzyme A. The inhibitor concentrations are shown in the Tables I and II. Peptide nitroanilides with appropriate sequence were used as substrates for various serine proteases. All peptide 4-nitroanilide hydrolysis was measured at 410 nm (ε410 =8800M^-1 cm^-1; Erlanger et al., Arch. Biochem. Biophys. 95, pp 271-278 (1961), incorporated herein by reference). Peptide thioester hydrolysis rates were measured with assay mixtures containing 4,4'-dithiodipyridine (ε324 =19800M^-1 cm^-1; Grasetti & Murray, Arch. Biochem. Biophys. 119, pp. 41-49 (1967), incorporated herein by reference). First order inactivation rate constant (kobs) were obtained from plots of ln (vt /vo) vs time, and the correlation coefficients were greater than 0.98.
(§2) ^a Inhibition was measured in 0.1 M Hepes, 0.5 M NaCl (or 0.01 M
(§3) CaCl2), pH 7.5 buffer, 5-10% Me2 SO and at 25° C.
(§4) SucVal-Pro-NA (0.48 mM) was used as the substrate for chymotrypsin and ca
^b Inhibitor concentrations were 20-400 μM.

cathepsin G (cat G) = biological target: T2, cathepsin G (cat G) (Homo sapiens, UniProt P08311); test: Inactivation of cathepsin G by biotin-isocoumarins (incubation method); type: biochemical; settings: inhibitor 75-400 μM; pH 7.5, 25° C.; NI = no inhibition after 10 min of incubation; read-out: kobs/[I] Cat. G
T2 sequence (P08311 21-255): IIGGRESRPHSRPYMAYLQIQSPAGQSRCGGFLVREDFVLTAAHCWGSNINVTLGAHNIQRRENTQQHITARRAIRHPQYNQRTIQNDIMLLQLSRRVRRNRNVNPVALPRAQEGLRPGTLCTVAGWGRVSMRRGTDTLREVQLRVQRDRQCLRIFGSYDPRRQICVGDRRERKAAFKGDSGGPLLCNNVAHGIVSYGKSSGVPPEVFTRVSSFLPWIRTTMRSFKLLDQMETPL
Description: as §1, §2, §3, §4
(§5) G. MeOSuc-Ala-Ala-Pro-Val-NA (0.24-0.47 mM) and SucAla-Ala-Ala-NA
^c Inhibitor concentrations were 75-400 μM.
(§6) ^h No inhibition after 10 min of incubation of inhibitor and enzyme.
(§7) ^i Percentage of inhibition after 10 min of incubation of inhibitor

[2] = biological target: T3, human leukocyte elastase (HLE) (Homo sapiens, UniProt P08246); test: Inactivation of human leukocyte elastase by biotin-isocoumarins (incubation method); type: biochemical; settings: inhibitor 1.6-210 μM; pH 7.5, 25° C.; read-out: kobs/[I] HLE
T3 sequence (P08246 30-267): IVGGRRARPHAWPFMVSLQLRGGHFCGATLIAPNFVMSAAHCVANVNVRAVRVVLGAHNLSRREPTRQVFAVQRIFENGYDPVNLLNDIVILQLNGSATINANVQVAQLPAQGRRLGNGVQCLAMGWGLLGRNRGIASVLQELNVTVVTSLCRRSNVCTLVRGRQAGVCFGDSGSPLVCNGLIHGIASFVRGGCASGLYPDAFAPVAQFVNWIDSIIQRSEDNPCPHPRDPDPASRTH
Description: as §1, §2, §3, §5
(§8) (0.29-0.48 mM) were used as the substrate for HLE and PPE respectively.
^d Inhibitor concentrations were 1.6-210 μM.

[3] = biological target: porcine pancreatic elastase (PPE) (Sus scrofa, UniProt P00772); test: Inactivation of porcine pancreatic elastase by biotin-isocoumarins (incubation method); type: biochemical; settings: inhibitor 38-78 μM; pH 7.5, 25° C.; NI = no inhibition after 10 min of incubation; read-out: kobs/[I] PPE
Description: as §1, §2, §3, §5, §8
^e Inhibitor concentrations were 38-78 μM.
as §6

trypsin [4] = biological target: T4, trypsin (Bos taurus, UniProt P00760); test: Inactivation of trypsin by biotin-isocoumarins (incubation method); type: biochemical; settings: inhibitor 41-42 μM; 0.1 M Hepes, 0.01 M CaCl2, pH 7.5, 25° C.; read-out: kobs/[I] Trypsin
T4 sequence (P00760 24-246): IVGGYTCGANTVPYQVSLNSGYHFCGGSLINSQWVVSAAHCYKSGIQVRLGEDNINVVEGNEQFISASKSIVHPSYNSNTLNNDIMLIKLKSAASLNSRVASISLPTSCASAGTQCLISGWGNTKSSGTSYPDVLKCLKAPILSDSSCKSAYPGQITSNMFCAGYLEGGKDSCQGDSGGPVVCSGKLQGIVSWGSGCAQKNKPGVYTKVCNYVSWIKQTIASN
Description: as §1, §2, §3
(§9) ZGlu-Phe-Arg-NA (0.032 mM) was a substrate for trypsin. ZArg-SBzl (0.120
^f Inhibitor concentrations were 41-42 μM.

[5] = biological target: T5, human recombinant (HR) granzyme A (Homo sapiens, UniProt P12544); test: Inactivation of human recombinant granzyme A by biotin-isocoumarins (incubation method); type: biochemical; settings: inhibitor 160-210 μM, pH 7.5, 25° C.
T5 sequence (P12544 29-262): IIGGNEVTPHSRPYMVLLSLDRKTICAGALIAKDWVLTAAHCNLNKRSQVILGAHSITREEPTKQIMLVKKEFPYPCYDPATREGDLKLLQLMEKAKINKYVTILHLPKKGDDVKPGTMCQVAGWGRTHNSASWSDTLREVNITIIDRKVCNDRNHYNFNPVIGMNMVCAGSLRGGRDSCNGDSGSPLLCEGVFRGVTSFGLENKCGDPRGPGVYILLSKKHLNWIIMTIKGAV
Description: as §1, §2, §3, §9
mM) was a substrate for human recombinant (HR) granzyme A.
^g Inhibitor concentrations were 160-210 μM.
as §6, §7

PPE [6] = biological target: T6, PPE (Sus scrofa, UniProt P00772); test: Reactivation of inhibited PPE in buffer and with NH2OH; type: biochemical, porcine; settings: for % of Enzyme Activity Reactivated, PPE +NH2OH: 0.4 M NH2OH, immediately after addition; for % of Enzyme Activity Reactivated, PPE in buffer: after removal of excess inhibitor, 25° C. for two days, 2880 min
Description: (§10) ^a Inhibition was performed at 0.1 M Hepes, 0.5 M NaCl, pH 7.5 buffer
(§11) 10% Me2 SO and 25° C. Reactivation was carried out in the
(§12) presence of 0.4 M of NH2 OH, and occurred immediately after the
(§13) ^b Enzyme activity was measured after removal of excess inhibitor by
(§14) centrifugation at 0° C. with centricon10 microconcentrator and
(§15) staying at 25° C. for two days.

trypsin [7] = biological target: T4, trypsin; test: Reactivation of inhibited trypsin in buffer; type: biochemical; settings: after removal of excess inhibitor, 25° C. for two days
Description: as §10, §11, §13, §14, §15

Rat Granule Chymase [8] = test: Inhibition of rat granule chymase; type: biochemical; settings: [I] 0.2 mM; inhibition not time dependent; pH 7.5, 10% Me2SO, 25° C.
Description: as §1, with “First order inactivation rate constant (kobs) were obtained from plots of ln (vt /vo) vs time, and the correlation coefficients were greater than 0.98.” left out
(§16) ^a Inhibition was measured in 0.1 M Hepes, 0.5 M NaCl, pH 7.5 buffer, […]

Rat Granule Tryptase = test: Inhibition of rat granule tryptase; type: biochemical; settings: [I] 0.078 mM or 0.2 mM as per table line; pH 7.5, 10% Me2SO, 25° C.
Description: as §1, with “First order inactivation rate constant (kobs) were obtained from plots of ln (vt /vo) vs time, and the correlation coefficients were greater than 0.98.” left out
as §16

chymotrypsin [9] = biological target: T1, chymotrypsin; test: Reactivation of inhibited chymotrypsin in buffer and with NH2OH; type: biochemical, bovine
Description: as §10, §11, §12, §13, §14, §15

Rat Granule Chymase [10] = test: Reactivation of inhibited rat granule chymase with NH2OH; type: biochemical; settings: 0.4 M NH2OH, immediately after addition
Description: as §10, §11
presence of 0.4 M of NH2 OH, and occurred immediately after the […]

chymotrypsin [11] = biological target: T1, chymotrypsin; test: Effect of streptavidin and avidin on reactivation of inhibited chymotrypsin; type: biochemical, bovine; settings: monitored for two days
Description: (§17) ^a Percentage of regained enzymatic activity was measured in 0.1 M
(§18) Hepes, 0.5 M NaCl, pH 7.5 buffer, 8% Me2 SO and at 25° C.
(§19) Excess inhibitor was removed from enzymeinhibitor mixture by
(§20) centrifugation twice with Amicon microconcentrator10. Then 3-4 units of
(§21) avidin or strepavidin was added and enzymatic activity was monitored for […]

PPE [12] = biological target: T6, PPE; test: Effect of streptavidin and avidin on reactivation of inhibited PPE; type: biochemical, porcine; settings: monitored for two days
Description: as §17, §18, §19, §20, §21

[13] = 3-4 units streptavidin, 2880 min

T6 sequence (P00772 27-266): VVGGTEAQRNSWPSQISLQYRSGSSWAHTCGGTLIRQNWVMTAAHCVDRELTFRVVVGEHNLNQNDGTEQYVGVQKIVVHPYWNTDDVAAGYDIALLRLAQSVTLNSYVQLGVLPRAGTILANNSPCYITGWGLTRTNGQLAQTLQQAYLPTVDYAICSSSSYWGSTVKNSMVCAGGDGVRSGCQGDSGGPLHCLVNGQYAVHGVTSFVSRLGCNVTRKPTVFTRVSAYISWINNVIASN
Chain of porcine pancreatic elastase (PPE) (P00772 27-266): as above

Compound	kinact/KI (chymotrypsin [1])	kinact/KI (cathepsin G (cat G))	kinact/KI [2]	kinact/KI [3]	kinact/KI (trypsin [4])	Percentage of inhibition of HR Granzyme A after 10 min of incubation of inhibitor and enzyme [5]	% of Enzyme Activity Reactivated, PPE +NH2OH (PPE [6])	% of Enzyme Activity Reactivated, PPE in buffer (PPE [6])	% of Enzyme Activity Reactivated, Trypsin in buffer (trypsin [7])	kobs/[I] Chymotrypsin (chymotrypsin [1]; inhibitor 20-400 μM)	Rat Granule Chymase % of inhibition (Rat Granule Chymase [8])	Rat Granule Tryptase kobs/[I] (Rat Granule Tryptase)	% of Enzyme Activity Reactivated, Chymotrypsin +NH2OH (chymotrypsin [9]; 0.4 M NH2OH, immediately after addition)	% of Enzyme Activity Reactivated, Chymotrypsin in buffer (chymotrypsin [9]; after removal of excess inhibitor, 25° C. for two days)	% of Enzyme Activity Reactivated, Rat granule chymase +NH2OH (Rat Granule Chymase [10])	% of Regained Enzyme Activity, Chymotrypsin, +Streptavidin (chymotrypsin [11]; [13])	% of Regained Enzyme Activity, Chymotrypsin, Buffer (chymotrypsin [11]; pH 7.5, 8% Me2SO, 25° C.)	% of Regained Enzyme Activity, PPE, +Avidin (PPE [12]; 3-4 units avidin, 2880 min)	% of Regained Enzyme Activity, PPE, +Streptavidin (PPE [12]; [13])	% of Regained Enzyme Activity, PPE, Buffer (PPE [12]; pH 7.5, 8% Me2SO, 25° C.)
CCOc1oc(=O)c2cc(NC(=O)CCCCCNC(=O)CCCC[C@@H]3SC[C@@H]4NC(=O)N[C@@H]43)ccc2c1Cl [Compound 5, 7-(6-biotinylaminocaproyl)amino-4-chloro-3-ethoxyisocoumarin]	260 M⁻¹ s⁻¹	59 M⁻¹ s⁻¹	96000 M⁻¹ s⁻¹	520 M⁻¹ s⁻¹	16.6 M⁻¹ s⁻¹	26%	93%	66%	92%	–	–	–	–	–	–	–	–	–	–	–
O=C(CCCC[C@@H]1SC[C@@H]2NC(=O)N[C@@H]21)Nc1ccc2c(Cl)c(OCCc3ccccc3)oc(=O)c2c1 [Compound 1, 7-biotinylamino-4-chloro-3-(2-phenylethoxy)isocoumarin]	330 M⁻¹ s⁻¹	–	740 M⁻¹ s⁻¹	–	1.1 M⁻¹ s⁻¹	–	–	–	–	165 M⁻¹ s⁻¹	10-20%	2 to 3 M⁻¹ s⁻¹	100%	15%	100%	27%	10%	–	–	–
CCCOc1oc(=O)c2cc(NC(=O)CCCCCNC(=O)CCCC[C@@H]3SC[C@@H]4NC(=O)N[C@@H]43)ccc2c1Cl [Compound 4, 7-(6-biotinylaminocaproyl)amino-4-chloro-3-propoxyisocoumarin]	260 M⁻¹ s⁻¹	3.3 M⁻¹ s⁻¹	76700 M⁻¹ s⁻¹	350 M⁻¹ s⁻¹	10.6 M⁻¹ s⁻¹	–	90%	37%	33%	–	–	–	–	–	–	–	–	32%	43%	37%
